Reference: PMC10272180, “Ancient medicinal plant rosemary contains a highly efficacious and isoform-selective KCNQ potassium channel opener” (Communications Biology, 2023)

What was measured:
[1] = target: T1, KCNQ3/5 (Homo sapiens, UniProt O43525+Q9NR82); assay: TEVC of KCNQ3/5 heteromers expressed in Xenopus laevis oocytes; assay type: cell-based
T1 construct: expressed in transfected cells; host or cells: Xenopus laevis oocytes co-injected with cRNAs
From the text: We generated cRNA transcripts encoding human KCNQ1, 2, 3, and 5 (wild-type and mutant) by in vitro transcription using the mMessage mMachine kit (Thermo Fisher Scientific, Waltham, MA, USA) according to manufacturer’s instructions, after vector linearization, from cDNA sub-cloned into expression vectors (pTLNx and pXOOM) incorporating Xenopus laevis β-globin 5’ and 3’ UTRs flanking the coding region to enhance translation and cRNA stability. Mutant KCNQ cDNAs were generated by Genscript (Piscataway, NJ, USA) and cRNAs made as above. We injected defolliculated stage V and VI Xenopus laevis oocytes (Xenoocyte, Dexter, MI, USA) with KCNQ cRNAs (2–10 ng) and incubated the oocytes at 16 °C in ND96 oocyte storage solution containing penicillin and streptomycin, with daily washing, for 2–4 days prior to two-electrode voltage-clamp (TEVC) recording.
We performed TEVC at room temperature using an OC-725C amplifier (Warner Instruments, Hamden, CT, USA) and pClamp10 software (Molecular Devices, Sunnyvale, CA, USA) 2–4 days after cRNA injection. We placed oocytes in a small-volume oocyte bath (Warner) and viewed them with a dissection microscope for cellular electrophysiology. We sourced chemicals from Sigma-Aldrich (St. Louis, MO, USA) and Combi-Blocks (San Diego, CA, USA). We studied effects of Salvia rosmarinus extracts and of compounds, solubilized directly in bath solution (in mM): 96 NaCl, 4 KCl, 1 MgCl2, 1 CaCl2, 10 HEPES (pH 7.6). We introduced extracts or compounds into the oocyte recording bath by gravity perfusion at a constant flow of 1 ml per minute for 3 min prior to recording. Pipettes were of 1-2 MΩ resistance when filled with 3 M KCl. […] We analyzed data using Clampfit (Molecular Devices) and Graphpad Prism software (GraphPad, San Diego, CA, USA), stating values as mean ± SEM. We plotted raw or normalized tail currents versus prepulse voltage and fitted with a single Boltzmann function:1 g=(A1−A2)/1+exp[V1/2−V/Vs]y+A2 where g is the normalized tail conductance, A1 is the initial value at -∞, A2 is the final value at +∞, V1/2 is the half-maximal voltage of activation and Vs the slope factor. We fitted activation and deactivation kinetics with single exponential functions.

[2] = target: KCNQ3* (KCNQ3-A315T) (Homo sapiens, UniProt O43525, A315T); assay: TEVC of KCNQ3* homomers expressed in Xenopus laevis oocytes; assay type: cell-based
Chain of KCNQ3* (KCNQ3-A315T) (O43525 whole entry A315T): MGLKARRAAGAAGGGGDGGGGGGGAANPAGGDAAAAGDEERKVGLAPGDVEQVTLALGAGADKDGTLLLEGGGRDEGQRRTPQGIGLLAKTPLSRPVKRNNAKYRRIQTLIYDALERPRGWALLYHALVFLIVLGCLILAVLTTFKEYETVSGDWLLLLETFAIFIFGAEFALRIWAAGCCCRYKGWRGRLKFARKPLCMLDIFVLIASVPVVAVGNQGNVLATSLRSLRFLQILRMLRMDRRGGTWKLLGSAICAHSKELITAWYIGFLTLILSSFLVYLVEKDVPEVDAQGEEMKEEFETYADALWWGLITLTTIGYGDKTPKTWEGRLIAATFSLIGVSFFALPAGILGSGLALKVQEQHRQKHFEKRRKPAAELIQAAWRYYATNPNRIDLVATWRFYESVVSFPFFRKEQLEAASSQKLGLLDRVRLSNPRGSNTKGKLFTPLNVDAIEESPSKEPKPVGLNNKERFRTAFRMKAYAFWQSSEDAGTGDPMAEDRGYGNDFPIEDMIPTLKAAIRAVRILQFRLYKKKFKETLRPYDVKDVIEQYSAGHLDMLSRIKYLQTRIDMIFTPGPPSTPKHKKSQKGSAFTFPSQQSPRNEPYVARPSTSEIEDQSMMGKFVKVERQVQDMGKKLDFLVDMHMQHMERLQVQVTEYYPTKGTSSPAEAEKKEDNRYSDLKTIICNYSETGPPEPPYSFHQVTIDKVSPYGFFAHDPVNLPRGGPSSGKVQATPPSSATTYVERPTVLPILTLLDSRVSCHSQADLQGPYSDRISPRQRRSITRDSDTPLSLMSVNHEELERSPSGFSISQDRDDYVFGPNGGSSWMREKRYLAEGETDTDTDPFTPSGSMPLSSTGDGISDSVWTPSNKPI

[3] = 5 µM, post 3 hrs. incubation 30 µM Wortmannin

CC(C)c1cc2c(c(O)c1O)[C@@]1(C(=O)O)CCCC(C)(C)[C@@H]1CC2 [Carnosic acid, carnosic acid]
V0.5 Normalized tail current ([1]; 0.1 µM): -41.88 ± 0.50 mV | V0.5 Normalized tail current ([1]; 1 µM): -47.59 ± 0.51 mV | V0.5 Normalized tail current ([1]; 3 µM): -52.07 ± 0.47 mV | V0.5 Normalized tail current ([1]; 10 µM): -56.02 ± 0.57 mV | V0.5 Normalized tail current ([1]; 30 µM): -62.10 ± 0.87 mV | V0.5 Normalized tail current ([1]; 100 µM): -68.83 ± 1.11 mV | channel opening ([1]; 100 µM): powerful opener | EC50 ([1]; EC50 EM): 4.21 ± 0.16 µM | EC50 ([1]; EC50 V0.5 Activation): 4.53 ± 0.11 µM | V0.5 Normalized tail current ([2]; 0.1 µM): -55.21 ± 0.45 mV | V0.5 Normalized tail current ([2]; 1 µM): -59.60 ± 0.47 mV | V0.5 Normalized tail current ([2]; 3 µM): -63.92 ± 0.74 mV | slowing of deactivation rate ([2]; 3 µM, at −120 mV): > fourfold | change of activation rate ([2]; 3 µM, voltage-independent): doubled | Slope ([2]; 5 µM): 7.61 ± 0.94 mV | V0.5 Normalized tail current ([2]; 5 µM): -63.93 ± 1.08 mV | Slope [2, 3]: 6.70 ± 0.56 mV | V0.5 Normalized tail current [2, 3]: -46.82 ± 0.64 mV | time to saturation of current potentiation upon wash-in ([2]; 5 µM, −60 mV): around 150 s | V0.5 Normalized tail current ([2]; 10 µM): -73.28 ± 1.41 mV | V0.5 Normalized tail current ([2]; 30 µM): -92.58 ± 2.21 mV | Slope ([2]; 100 µM): 9.91 ± 0.62 mV | V0.5 non-normalized tail current ([2]; 100 µM): -111.1 ± 5.75 mV | effect on EM of unclamped oocytes ([2]; 100 µM (hesperidin 30 µM)): hyperpolarized | EC50 ([2]; EC50 EM, EM of unclamped oocytes): 1.19 ± 0.19 µM | EC50 ([2]; EC50 Fold change -60 mV, current increase at −60 mV): 5.43 ± 0.37 µM | EC50 ([2]; EC50 V0.5 Activation, ΔV0.5act): 18 ± 0.72 µM
